Assay results as given in patent US20170088878A1, “METHOD FOR THE GENERATION OF CHEMICAL LIBRARIES” (ETH ZURICH, priority 2014, published 2017).

Target: T1, HCV protease (Hepatitis C virus genotype 1a, UniProt P27958)
T1 construct: purchased ProteinOne
Test: biochemical
Description: The HCV protease assay kits were purchased from ProteinOne and experiments were performed according to the manual provided.
Assay solution (100 μL) was added to each well by a multichannel pipette (Eppendorf Research) and the fluorescence signals were recorded immediately.
Fluorescence signals were recorded at 90 min. The experiment was repeated in triplicate. IC50 was calculated via nonlinear regression using the software package GraphPad Prism 5.

T1 sequence (P27958 1027-1208, other chains not shown): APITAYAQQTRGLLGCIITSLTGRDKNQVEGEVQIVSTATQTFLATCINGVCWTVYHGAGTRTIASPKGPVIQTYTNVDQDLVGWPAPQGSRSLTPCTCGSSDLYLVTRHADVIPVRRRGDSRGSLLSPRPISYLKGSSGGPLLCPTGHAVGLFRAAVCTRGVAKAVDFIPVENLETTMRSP

CC(C)(C)OC(=O)CC[C@@H](CC(=O)C(=O)NCc1ccc(Cl)cc1)NC(=O)C[C@@H](NC(=O)C[C@@H](NC(=O)C[C@@H](NC(=O)CCC(=O)O)C1CCCCC1)C1CCCCC1)C1CCCCC1 [I^3-M^5-M^5-M^5-T^4]
IC50: 1000 nM
